In US20130005988A1, “2-AZETIDINEMETHANEAMINES AND 2-PYRROLIDINEMETHANEAMINES AS TAAR-LIGANDS” (priority 2007, published 2013):

molecular target: T1, TAAR1 (Mus musculus, UniProt Q923Y8); assay: Radioligand binding on membranes of HEK293 cells stably expressing TAAR1; details: radioligand [3H]-rac-2-(1,2,3,4-tetrahydro-1-naphthyl)-2-imidazoline at 60 nM, 4° C., 30 min
T1 construct: expressed in transfected cells; host or cells: HEK293 (ATCC #CRL-1573), stably transfected with pIRESneo2 expression plasmid
T1 sequence (Q923Y8 whole entry): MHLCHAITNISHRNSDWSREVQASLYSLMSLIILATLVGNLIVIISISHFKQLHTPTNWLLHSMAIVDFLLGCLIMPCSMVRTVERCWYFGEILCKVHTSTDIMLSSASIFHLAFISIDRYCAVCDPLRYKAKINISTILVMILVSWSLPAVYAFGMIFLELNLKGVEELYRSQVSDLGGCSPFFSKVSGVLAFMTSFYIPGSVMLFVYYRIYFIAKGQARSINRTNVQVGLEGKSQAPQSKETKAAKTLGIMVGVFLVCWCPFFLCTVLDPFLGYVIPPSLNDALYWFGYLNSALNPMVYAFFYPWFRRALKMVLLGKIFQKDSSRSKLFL
Protocol: (§1) For the construction of expression plasmids the coding sequences of human, rat and mouse TAAR 1 were amplified from genomic DNA essentially as described by Lindemann et al.. The Expand High Fidelity PCR System (Roche Diagnostics) was used with 1.5 mM Mg^2+ and purified PCR products were cloned into pCR2.1-TOPO cloning vector (Invitrogen) following the instructions of the manufacturer. PCR products were subcloned into the pIRESneo2 vector (BD Clontech, Palo Alto, Calif.), and expression vectors were sequence verified before introduction in cell lines.
HEK293 cells (ATCC #CRL-1573) were cultured essentially as described Lindemann et al. (2005). For the generation of stably transfected cell lines HEK293 cells were transfected with the pIRESneo2 expression plasmids containing the TAAR coding sequences (described above) with Lipofectamine 2000 (Invitrogen) according to the instructions of the manufacturer, and 24 hrs post transfection the culture medium was supplemented with 1 mg/ml G418 (Sigma, Buchs, Switzerland). After a culture period of about 10 d clones were isolated, expanded and tested for responsiveness to trace amines (all compounds purchased from Sigma) with the cAMP Biotrak Enzyme immunoassay (EIA) System (Amersham) following the non-acetylation EIA procedure provided by the manufacturer.
Cells at confluence were rinsed with ice-cold phosphate buffered saline without Ca^2+ and Mg^2+ containing 10 mM EDTA and pelleted by centrifugation at 1000 rpm for 5 min at 4° C. The pellet was then washed twice with ice-cold phosphate buffered saline and cell pellet was frozen immediately by immersion in liquid nitrogen and stored until use at −80° C. Cell pellet was then suspended in 20 ml HEPES-NaOH (20 mM), pH 7.4 containing 10 mM EDTA, and homogenized with a Polytron (PT 3000, Kinematica) at 10,000 rpm for 10 s. The homogenate was centrifuged at 48,000×g for 30 min at 4° C. and the pellet resuspended in 20 ml HEPES-NaOH (20 mM), pH 7.4 containing 0.1 mM EDTA (buffer A), and homogenized with a Polytron at 10,000 rpm for 10 s. The homogenate was then centrifuged at 48,000×g for 30 min at 4° C. and the pellet resuspended in 20 ml buffer A, and homogenized with a Polytron at 10,000 rpm for 10 s. Protein concentration was determined by the method of Pierce (Rockford, Ill.). The homogenate was then centrifuged at 48,000×g for 10 min at 4° C., resuspended in HEPES-NaOH (20 mM), pH 7.0 including MgCl2 (10 mM) and […] homogenized with a Polytron at 10,000 rpm for 10 s.
Binding assay was performed at 4° C. in a final volume of 1 ml, and with an incubation time of 30 min. The radioligand [^3H]-rac-2-(1,2,3,4-tetrahydro-1-naphthyl)-2-imidazoline was used at a concentration equal to the calculated Kd value of 60 nM to give a bound at around 0.1% of the total added radioligand concentration, and a specific binding which represented approximately 70-80% of the total binding. Non-specific binding was defined as the amount of [^3H]-rac-2-(1,2,3,4-tetrahydro-1-naphthyl)-2-imidazoline bound in the presence of the appropriate unlabelled ligand (10 μM). Competing ligands were tested in a wide range of concentrations (10 pM-30 μM). […] Each experiment was performed in duplicate. All incubations were terminated by rapid filtration through UniFilter-96 plates (Packard Instrument Company) and glass filter GF/C, pre-soaked for at least 2 h in polyethylenimine 0.3%, and using a Filtermate 96 Cell Harvester (Packard Instrument Company). The tubes and filters were then washed 3 times with 1 ml aliquots of cold buffer B. Filters were not dried and soaked in Ultima gold (45 μl/well, Packard Instrument Company) and bound radioactivity was counted by a TopCount Microplate Scintillation Counter (Packard Instrument Company).

SMILES | Ki [µM]
CCN(C[C@H]1CCCN1)c1ccc(Cl)cc1 [Example 16, (4-Chloro-phenyl)-ethyl-(R)-1-pyrrolidin-2-ylmethyl-amine] | 0.0056
COc1cc(N(C[C@@H]2CCCN2)C(C)C)ccc1Cl [Example 12, (4-Chloro-3-methoxy-phenyl)-isopropyl-(S)-1-pyrrolidin-2-ylmethyl-amine] | 0.0213
CC(C)N(C[C@@H]1CCCN1)c1ccc(Cl)c(Cl)c1 [Example 13, (3,4-Dichloro-phenyl)-isopropyl-(S)-1-pyrrolidin-2-ylmethyl-amine] | 0.005
CCN(C[C@@H]1CCCN1)c1ccc(Cl)cc1 [Example 11, (4-Chloro-phenyl)-ethyl-(8)-1-pyrrolidin-2-ylmethyl-amine] | 0.0131
CCN(C[C@@H]1CCN1)c1cccc(Br)c1 [Example 20, (S)-1-Azetidin-2-ylmethyl-(3-bromo-phenyl)-ethyl-amine] | 0.0047
CCN(C[C@H]1CCCN1)c1cccc(Oc2ccccc2)c1 [Example 3, Ethyl-(3-phenoxy-phenyl)-(R)-1-pyrrolidin-2-ylmethyl-amine] | 0.0044
CCN(C[C@@H]1CCN1)c1cccc(OC)c1 [Example 19, (S)-1-Azetidin-2-ylmethyl-ethyl-(3-methoxy-phenyl)-amine] | 0.0137
CC(C)N(C[C@@H]1CCN1)c1ccc(Cl)cc1 [Example 22, (S)-1-Azetidin-2-ylmethyl-(4-chloro-phenyl)-isopropyl-amine] | 0.041
CN(C[C@@H]1CCN1)c1ccc(Cl)cc1 [Example 21, (S)-1-Azetidin-2-ylmethyl-(4-chloro-phenyl)-methyl-amine] | 0.021
CCN(C[C@@H]1CCCN1)c1ccc(Cl)c(OC)c1 [Example 9, (4-Chloro-3-methoxy-phenyl)-ethyl-(8)-1-pyrrolidin-2-ylmethyl-amine] | 0.0092
CCN(C[C@@H]1CCCN1)c1ccc(Cl)c(Cl)c1 [Example 6, (3,4-Dichloro-phenyl)-ethyl-(S)-1-pyrrolidin-2-ylmethyl-amine] | 0.0028
CCN(C[C@@H]1CCCN1)c1cccc(Oc2ccccc2)c1 [Example 4, Ethyl-(3-phenoxy-phenyl)-(S)-1-pyrrolidin-2-ylmethyl-amine] | 0.0172
Clc1ccc(N(Cc2ccccc2)C[C@@H]2CCN2)cc1 [Example 23, (S)-1-Azetidin-2-ylmethyl-benzyl-(4-chloro-phenyl)-amine] | 0.0107
COc1cc(N(C)C[C@@H]2CCCN2)ccc1Cl [Example 8, (4-Chloro-3-methoxy-phenyl)-methyl-(8)-1-pyrrolidin-2-ylmethyl-amine] | 0.0859
CCN(C[C@@H]1CCN1)c1ccccc1 [Example 18, (S)-1-Azetidin-2-ylmethyl-ethyl-phenyl-amine] | 0.0092

molecular target: T1, TAAR1; assay: Radioligand Kd used in the TAAR1 binding assay; details: radioligand in the TAAR1 membrane binding assay; species not stated; read-out: calculated Kd value
Protocol: as §1
Cells at confluence were rinsed with ice-cold phosphate buffered saline without Ca^2+ and Mg^2+ containing 10 mM EDTA and pelleted by centrifugation at 1000 rpm for 5 min at 4° C. The pellet was then washed twice with ice-cold phosphate buffered saline and cell pellet was frozen immediately by immersion in liquid nitrogen and stored until use at −80° C. […] Protein concentration was determined by the method of Pierce (Rockford, Ill.). […]
Binding assay was performed at 4° C. in a final volume of 1 ml, and with an incubation time of 30 min. […] The tubes and filters were then washed 3 times with 1 ml aliquots of cold buffer B. Filters were not dried and soaked in Ultima gold (45 μl/well, Packard Instrument Company) and bound radioactivity was counted by a TopCount Microplate Scintillation Counter (Packard Instrument Company).

SMILES | Kd [nM]
c1ccc2c(c1)CCCC2C1=NCCN1 (racemic) [[^3H]-rac-2-(1,2,3,4-tetrahydro-1-naphthyl)-2-imidazoline] | 60
